{
  "source": "patent US7763660B2",
  "about": "“Inhibitors of Candida albicans” (The University of Vermont and State Agricultural College, priority 2003, dated 2010)",
  "key": {"C. albicans cells": {"system": "C. albicans cells", "assay": "small molecule screen for inhibitors of the Spider media-induced budded-to-hyphal transition", "type": "cell-based, Candida albicans", "description": "For the screen, C. albicans cells were grown in YNB media that inhibits hyphal growth and then transferred to 384-well optical plates containing Spider media to induce the budded-to-hyphal transition and hyphal elongation. […] In FIG. 3, the indicated small molecules were added at the indicated concentrations at time 0 and growth was allowed to continue for 4 h at 37° C. before the cells were fixed and observed microscopically. YNB media is well known in the art and contains yeast nitrogen base (DIFCO Labs.), glucose (US Biological) and d-H2O. Spyder media is well known in the art and contains nutrient broth (DIFCO Labs.), mannitol (Sigma-Aldrich), K2HPO4 (Sigma-Aldrich) and d-H2O.\nNext, small molecules were assayed for their ability to inhibit the Spider media-induced hyphal growth.\nThe basic microscopic screen was described in detail above. To identify inhibitors, C. albicans cells are initially grown in YNB media that inhibits hyphal growth and then transferred to 384-well optical assay plates containing Spider media to induce the transition to hyphae. Individual molecules from the Chembridge small molecule library (Kao, R. Y. T., et al., 2002, Proc. Natl. Acad. Sci. USA 99: 10066-10071), or other library, are transferred from a 384-well plate containing stock solutions to individual wells of the assay plates. For convenience, positive and negative controls may be located at each corner of the plate. These plates are incubated at 37° C. for 4 h to allow for hyphal elongation before the cells are fixed and screened. Screening occurs on an inverted Nikon microscope with a computer driven XY stage with DIC/Hoffman optics, digital SPOT® camera and automatic shutter. Pictures are automatically taken of each well with the plate number and well position embedded in the picture through a script written for OpenLab® image analysis software from Improvision (INVIVO, from QED Imaging, Inc.). Inhibitory molecules are identified by rapidly screening a picture of each well for the presence of budded cells and absence of hyphal cells. Each inhibitor is retested at both 4 h and 16 h to eliminate those compounds that are cytotoxic, delay hyphal formation, or delay elongation through a growth defect. Molecules that give consistent inhibition of the budded-to-hyphal transition with continued budded growth with no hyphae out to 16 are further characterized as described below. A dose-response for each molecule is established through serial dilutions in order to determine the threshold concentration of each molecule. Typical threshold concentrations range from about 1 to about 100 micromolar (μM). In addition, the reversibility of each molecule is tested by washing out the molecule and adding fresh Spider media; cells that resume hyphal growth indicate that the molecule is reversible in action and that the molecule's initial effects were not due to cytotoxicity."}, "[1]": {"conditions": "Scott, V. R., et al., 1988; cited from earlier work"}},
  "data": [
    {"smiles": "C/C1=C/C(=O)O[C@@H]2C[C@@H](CC[C@H](C)/C=C\\C=C\\CC1)O[C@@](O)([C@@H]1CSC(=O)N1)C2", "note": "[Lat A, latrunculin-A]", "values": [
      {"measurement": "dose-dependence of the inhibition", "setting": "C. albicans cells", "result": "dose-dependent"},
      {"measurement": "reversibility of the inhibition", "setting": "C. albicans cells", "result": "reversible"},
      {"measurement": "inhibition of the budded-to-hyphal transition and hyphal growth", "setting": "C. albicans cells; 0.1 μM, 4 h at 37° C.", "result": "effect was lost"},
      {"measurement": "inhibition of the budded-to-hyphal transition and hyphal growth", "setting": "C. albicans cells; 1.6 μM added at time 0, 4 h at 37° C.", "result": "inhibited the budded-to-hyphal transition and hyphal growth"}
    ]},
    {"smiles": "C/C1=C\\[C@H](C)C[C@H](C)OC(=O)C[C@H](c2ccc(O)cc2)NC(=O)[C@@H](Cc2c(Br)[nH]c3ccccc23)N(C)C(=O)[C@H](C)NC(=O)[C@@H](C)C1", "note": "[jasplakinolide]", "values": [
      {"measurement": "cell phenotype in the screen", "setting": "C. albicans cells; 4 h at 37° C. (FIG. 3)", "result": "apparent cell-cycle arrest as small budded cells"},
      {"measurement": "cytotoxicity in the screen", "setting": "C. albicans cells; 4 h at 37° C. (FIG. 3)", "result": "dose-dependent cytotoxic molecule"},
      {"measurement": "anti-fungal activity", "setting": "[1]", "result": "previously shown to have anti-fungal activity"}
    ]}
  ]
}
